{"source": "patent US20040122209A1", "about": "“Products for regulating the degradation of collagen and methods for identifying same” (Shriners Hospital For Children, priority 2002, published 2004)", "format_in_all_cases": "cell-based", "key": {"[1]": {"tested_on": "adult human articular cartilage", "test": "RT-PCR of hypertrophy and degradation genes in human articular cartilage explant culture", "procedure": "Total RNA was isolated from chondrocytes or cartilage explants by the guanidine isothiocyanate procedure according to Chomczynski and Sacchi (Chomczynski, P. et al., Anal. Biochem. 162:156-9 (1987)) with some modifications. Briefly, chondrocytes (1-2×10^6 cells) or cartilage tissue (200-300 mg) were solubilized in solution D (4 M guanidine isothiocyanate, 20 mM sodium acetate/pH 5.2, 0.1 M 2-mercaptoethanol and 0.5% N-lauroylsarcosine). One volume of isopropanol was added to the mixture and all proteins and nucleic acids were precipitated at −20° C. overnight. […] The total RNA pellet was resuspended in diethyl pyrocarbonate-treated (DEPC) water and the amount of total RNA was measured by reading optical density at 260 nm. […]\nOne microliter of reverse transcribed total RNA was incubated with 2.5 U of AmpliTaq™ DNA polymerase (Perkin Elmer, Branchburg, N.J.) in 50 mM KCl, 1.5 mM MgCl2, 10 mM Tris-HCl, pH 8.3, 200 μM dNTP mix and 0.5 μmol each of oligonucleotide primers in 50 μl reaction mixture. […] The digital images of the gel were analyzed using NIH 1.60 imaging software to evaluate the pixel intensity of the band of the PCR products. […] The band intensities were determined to be below saturation. […]\nMMP-13 expression was maximal by 12 days. Gene expression was determined by RT-PCR analyses of mRNA in the manner used to detect expression of MMPs and cytokines described elsewhere. […]"}, "[2]": {"tested_on": "MMP-13", "test": "RT-PCR of MMP-13 mRNA in human chondrocyte culture", "conditions": "24 hours incubation; data not shown", "from_the_text": "(§1) Isolated normal human chondrocytes were used for chondrocyte cultures, detection of integrin expression by FACScan, and cell attachment assays. The dissected normal human cartilage obtained at autopsy was cut into small cubes 2-4 mm in size. Chondrocytes were isolated as previously described (34), with some modifications. Briefly, the cubes were washed three times with medium (A). Thereafter, the diced cartilage was digested with 0.1% (wt/vol) trypsin (Sigma) and 0.02% (wt/vol) EDTA (Sigma) for 60 minutes (25 ml/10 g wet weight tissue) at 37° C. After washing the cartilage with Medium A containing 10% heat-inactivated fetal calf serum (FCS) to inhibit the trypsin, the digestion was continued in the same medium with serum (50 ml/10 g wet weight tissue) containing 0.2% (wt/vol) collagenase (type IA; Sigma) for 16 h at 37° C. with gentle agitation on a gyrotary shaker. Undigested cartilage was removed by filtration through a layer of nylon mesh (Cell Strainer; Becton Dickinson Labware, NJ). […]\n(§2) Total RNA was isolated from chondrocytes or cartilage explants by the guanidine isothiocyanate procedure according to Chomczynski and Sacchi (Chomczynski, P. et al., Anal. Biochem. 162:156-9 (1987)) with some modifications. […] The total RNA pellet was resuspended in diethyl pyrocarbonate-treated (DEPC) water and the amount of total RNA was measured by reading optical density at 260 nm. […]"}, "[3]": {"tested_on": "MMP-1", "test": "RT-PCR of MMP-1 mRNA in human chondrocyte culture", "conditions": "24 hours incubation; data not shown", "from_the_text": "as §1, §2"}}}
{"sequence": "ERGPPGPQGARGFPGTPGLPGVK [CB12-II]", "values": [{"measurement": "time at which MMP-13 expression was maximal", "setting": "[1]", "value": "≤ 12", "unit": "days"}, {"measurement": "expression of genes characteristic of chondrocyte hypertrophy (COLX, MMP-9, TGF-B1, IHH, MMP-13, CBFA1, SOX 9, bFGF, pTHrP, caspase-3, MT1-MMP, IL-1B, MMP-1)", "setting": "[1]; induction within a 24-48 hr period", "value": "rapid induction"}, {"measurement": "MMP-13 gene expression (mRNA by RT-PCR)", "setting": "[2]", "value": "weakly upregulated"}, {"measurement": "MMP-1 gene expression (mRNA by RT-PCR)", "setting": "[3]", "value": "clearly induced"}]}
